Experimental data published in BindingDB's records for patent US20250313563 (The Broad Institute, 2025).

Key:
[1] = biological target: Glycogen synthase kinase-3 alpha (Homo sapiens, UniProt P49840); assay: TR-FRET Assay
In short: (§1)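 TR-FRET readout: streptavidin-d2 (40 nM in added detection mix) plus Tb-anti-pSer641 Ab (2 nM in mix). Steps were 30 min compound preincubation, kinase reaction, then EDTA stop.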

[2] = biological target: Glycogen synthase kinase-3 beta (Homo sapiens, UniProt P49841); assay: TR-FRET Assay
Sequence of Glycogen synthase kinase-3 beta (P49841 whole entry): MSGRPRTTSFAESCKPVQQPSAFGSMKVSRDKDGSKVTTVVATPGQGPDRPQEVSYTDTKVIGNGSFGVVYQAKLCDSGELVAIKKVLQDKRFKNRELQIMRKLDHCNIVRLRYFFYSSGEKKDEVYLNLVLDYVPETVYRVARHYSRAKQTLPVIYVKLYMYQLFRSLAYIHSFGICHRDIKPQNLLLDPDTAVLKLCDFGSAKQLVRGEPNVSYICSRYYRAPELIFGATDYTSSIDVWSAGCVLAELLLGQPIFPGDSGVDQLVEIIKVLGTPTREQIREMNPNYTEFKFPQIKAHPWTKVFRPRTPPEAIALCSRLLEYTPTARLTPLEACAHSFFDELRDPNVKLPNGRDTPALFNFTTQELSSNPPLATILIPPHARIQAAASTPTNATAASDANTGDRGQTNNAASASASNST
In short: as §1

Sequence of Glycogen synthase kinase-3 alpha (P49840 whole entry): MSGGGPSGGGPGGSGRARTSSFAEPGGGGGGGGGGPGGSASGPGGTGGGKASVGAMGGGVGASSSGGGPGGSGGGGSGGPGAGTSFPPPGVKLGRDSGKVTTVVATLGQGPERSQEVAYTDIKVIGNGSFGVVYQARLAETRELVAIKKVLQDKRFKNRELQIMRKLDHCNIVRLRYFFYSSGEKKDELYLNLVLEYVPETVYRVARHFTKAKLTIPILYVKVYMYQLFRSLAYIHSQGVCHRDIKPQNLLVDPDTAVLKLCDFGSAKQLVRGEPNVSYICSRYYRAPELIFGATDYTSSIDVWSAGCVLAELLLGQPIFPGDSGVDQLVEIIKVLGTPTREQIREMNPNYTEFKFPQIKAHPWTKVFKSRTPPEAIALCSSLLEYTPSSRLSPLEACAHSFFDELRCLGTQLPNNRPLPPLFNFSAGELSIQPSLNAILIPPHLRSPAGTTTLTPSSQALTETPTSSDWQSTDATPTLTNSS

SMILES | IC50 [1] [nM] | IC50 [2] [nM]
CC[C@]1(c2cccc(-c3cc(C)nn3C)c2)C2=CN=NC2NC2=C1C(=O)CC(C)(C)[C@@H]2F (some centres not stated) [US20250313563, Compound 947655] | < 100 | 100 to 1000
CC[C@@]1(c2cccc(-c3cc(C)nn3C)c2)C2=CN=NC2NC2=C1C(=O)CC(C)(C)[C@H]2F (some centres not stated) [US20250313563, Compound 947656] | 100 to 1000 | > 5000
CC[C@@]1(c2cccc(-c3cc(C)nn3C)c2)C2=CN=NC2NC2=C1C(=O)CC(C)(C)[C@@H]2F (some centres not stated) [US20250313563, Compound 947657] | 100 to 1000 | > 5000
CC[C@@]1(c2cccc(-c3c(C)cncc3C)c2)C2=CN=NC2NC2=C1C(=O)CC(C)(C)C2 (some centres not stated) [US20250313563, Compound 947659] | < 100 | 100 to 1000
CC[C@]1(c2cccc(Cc3ncccc3C(F)(F)F)c2)C2=CN=NC2NC2=C1C(=O)CC(C)(C)C2 (some centres not stated) [US20250313563, Compound 947664] | < 100 | 100 to 1000
CC[C@@]1(c2cccc(Cc3ncccc3C(F)(F)F)c2)C2=CN=NC2NC2=C1C(=O)CC(C)(C)C2 (some centres not stated) [US20250313563, Compound 947665] | 1000 to 5000 | > 5000
CCC1(c2cccc(N3CCCC3)c2)C2=C(CC(C)(C)NC2=O)NC2N=NC(C)=C21 (configuration not stated) [US20250313563, Compound 947673] | < 100 | 100 to 1000
CCC1(c2cccc(N3CCCCC3)c2)C2=C(CC(C)(C)NC2=O)NC2N=NC(C)=C21 (configuration not stated) [US20250313563, Compound 947674] | < 100 | 100 to 1000
CCC1(c2cccc(-c3ccnc4c3CCC4)c2)C2=C(CC(C)(C)NC2=O)NC2N=NC(C)=C21 (configuration not stated) [US20250313563, Compound 947675] | < 100 | 100 to 1000
CCC1(c2cccc(-c3ccnc4c3CCC4)c2)C2=CN=NC2NC2=C1C(=O)NC(C)(C)C2 (configuration not stated) [US20250313563, Compound 947676] | < 100 | 100 to 1000
CCC1(c2cccc(C3=CN=NC3)c2)C2=C(CC(C)(C)NC2=O)NC2N=NC(C(F)(F)F)=C21 (configuration not stated) [US20250313563, Compound 947677] | < 100 | < 100
CC1CC(C(=O)N2CC3(C2)C[C@]2(CO3)C3=C(N=NC3)NC3=C2C(=O)CC(C)(C)C3)C1 (some centres not stated) [US20250313563, Compound 947732] | 100 to 1000 | 1000 to 5000
CC1(C)CC(=O)C2=C(C1)NC1=C(CN=N1)[C@]21COC2(CN(C(=O)C3(F)CCC3)C2)C1 [US20250313563, Compound 947735] | < 100 | < 100
CCC1(c2cccc(C(F)(F)F)c2)C2=CN=NC2NC2=C1C(=O)N(c1ccc(F)cc1)CC2 (configuration not stated) [US20250313563, Compound 947748] | < 100 | 100 to 1000
CCC1(c2cccc(-c3ccnc(C)c3)c2)C2=C(CC(C)(C)NC2=O)NC2N=NC(C)=C21 (configuration not stated) [US20250313563, Compound 947798] | < 100 | 100 to 1000
CCC1(c2cccc(S(C)(=O)=O)c2)C2=C(CC(C)(C)NC2=O)NC2N=NC(C(F)(F)F)=C21 (configuration not stated) [US20250313563, Compound 947799] | < 100 | < 100
CCC1(c2cccc(S(=O)(=O)C(C)C)c2)C2=C(CC(C)(C)NC2=O)NC2N=NC(C(F)(F)F)=C21 (configuration not stated) [US20250313563, Compound 947800] | < 100 | < 100
CCC1(c2cccc(-c3cnn4c3CCCC4)c2)C2=C(CC(C)(C)NC2=O)NC2N=NC(C(F)(F)F)=C21 (configuration not stated) [US20250313563, Compound 947801] | < 100 | < 100
CC[C@]1(c2cccc(S(=O)(=O)C3CC3)c2)C2=CN=NC2NC2=C1C(=O)NC(C)(C)C2 (some centres not stated) [US20250313563, Compound 947803] | < 100 | < 100
CC[C@]1(c2cccc(-c3ccncc3F)c2)C2=C(CC(C)(C)NC2=O)NC2N=NC(C)=C21 (some centres not stated) [US20250313563, Compound 947805] | 100 to 1000 | 1000 to 5000
CC[C@]1(c2cccc(-c3cnn(C)c3C)c2)C2=C(CC(C)(C)NC2=O)NC2N=NC(C(F)(F)F)=C21 (some centres not stated) [US20250313563, Compound 947807] | < 100 | 100 to 1000
CC[C@]1(c2cccc(-c3cnn4c3CCCC4)c2)C2=C(CC(C)(C)NC2=O)NC2N=NC(C)=C21 (some centres not stated) [US20250313563, Compound 947809] | 100 to 1000 | 1000 to 5000
CC[C@@]1(c2cccc(-c3ccnc(CCO)c3)c2)C2=CN=NC2NC2=C1C(=O)CC(C)(C)C2 (some centres not stated) [US20250313563, Compound 947810] | < 100 | 100 to 1000
CC[C@]1(c2cccc(S(C)(=O)=O)c2)C2=C(CC(C)(C)NC2=O)NC2N=NC(C)=C21 (some centres not stated) [US20250313563, Compound 947811] | < 100 | < 100
CC[C@]1(c2cccc(-c3ccncc3C)c2)C2=C(CC(C)(C)NC2=O)NC2N=NC(C(F)(F)F)=C21 (some centres not stated) [US20250313563, Compound 947812] | < 100 | < 100
CC1(C)CC(=O)C2=C(C1)NC1=C(CN=N1)C21CN(c2cccnc2)C1 [US20250313563, Compound 947813] | 1000 to 5000 | 1000 to 5000
